Key:
[1] = biological target: Sigma non-opioid intracellular receptor 1 (Homo sapiens) (UniProt Q99720); settings: Compound concentration 10.0 uM
[2] = biological target: L-type Ca2+ channel (diltiazem site), Cav1.2 alpha-1C (Rattus norvegicus, UniProt P22002); test: CA+/DILSI/R Cerep selectivity data (BI); parameters: mode of action inhibitor; settings: rat brain, probe [3H]diltiazem, compound concentration 20 uM, read-out: % Ctrl
[3] = biological target: Gastrin/cholecystokinin type B receptor (Homo sapiens) (UniProt P32239); test: CCKB/H Cerep selectivity data (BI); settings: Compound concentration 20.0 uM
[4] = biological target: Insulin receptor (Homo sapiens) (UniProt P06213); test: IRK(INSR)_CE Cerep selectivity data (BI); settings: Compound concentration 20.0 uM
[5] = biological target: Muscarinic acetylcholine receptor M3 (Homo sapiens) (UniProt P20309); test: M3/H Cerep selectivity data (BI); settings: Compound concentration 20.0 uM
[6] = biological target: T1, Alpha-2A adrenergic receptor (Homo sapiens) (UniProt P08913); test: ALPHA2A/H Eurofins-Panlabs selectivity data (BI); settings: Compound concentration 10.0 uM
T1 sequence (whole entry): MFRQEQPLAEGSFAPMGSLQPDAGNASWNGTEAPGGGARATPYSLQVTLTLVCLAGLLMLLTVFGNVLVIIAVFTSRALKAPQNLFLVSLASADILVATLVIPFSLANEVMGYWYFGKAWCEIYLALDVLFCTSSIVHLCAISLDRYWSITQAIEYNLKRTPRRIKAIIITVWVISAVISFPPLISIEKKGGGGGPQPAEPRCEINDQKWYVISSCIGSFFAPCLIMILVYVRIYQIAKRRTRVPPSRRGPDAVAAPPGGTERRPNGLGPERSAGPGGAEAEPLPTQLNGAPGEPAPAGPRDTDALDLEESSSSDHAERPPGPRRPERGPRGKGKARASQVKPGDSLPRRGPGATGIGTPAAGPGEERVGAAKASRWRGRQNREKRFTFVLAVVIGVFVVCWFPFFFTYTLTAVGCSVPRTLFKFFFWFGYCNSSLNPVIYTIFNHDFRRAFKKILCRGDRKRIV

[7] = biological target: Gamma-aminobutyric acid receptor subunit alpha-1 (Rattus norvegicus) (UniProt P62813); test: GABAACENTR Eurofins-Panlabs selectivity data (BI); settings: Compound concentration 10.0 uM
[8] = test system: Serine/threonine-protein kinase B-raf (Homo sapiens), P15056 [V600E]; test: BRAF V599E Invitrogen selectivity data (BI); settings: Compound concentration 3.0 uM
[9] = test system: Mast/stem cell growth factor receptor Kit (Homo sapiens), P10721 [T670I]; test: KIT T670I Invitrogen selectivity data (BI); settings: Compound concentration 3.0 uM
[10] = biological target: T2, Dual specificity mitogen-activated protein kinase kinase 6 (Homo sapiens) (UniProt P52564); test: MAP2K6_S_T_E Invitrogen selectivity data (BI); settings: Compound concentration 3.0 uM
T2 sequence (whole entry): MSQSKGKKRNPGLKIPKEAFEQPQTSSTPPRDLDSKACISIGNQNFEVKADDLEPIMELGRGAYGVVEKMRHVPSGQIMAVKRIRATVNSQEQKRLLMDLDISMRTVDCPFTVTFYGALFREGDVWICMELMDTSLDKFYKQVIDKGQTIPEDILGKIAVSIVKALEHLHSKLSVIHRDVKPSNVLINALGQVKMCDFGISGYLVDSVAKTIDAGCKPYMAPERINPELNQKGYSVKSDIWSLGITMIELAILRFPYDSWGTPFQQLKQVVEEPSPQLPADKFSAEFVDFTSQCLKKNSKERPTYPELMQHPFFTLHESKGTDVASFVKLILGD

[11] = biological target: Mitogen-activated protein kinase 3 (Homo sapiens) (UniProt P27361); test: MAPK3 Invitrogen selectivity data (BI); settings: Compound concentration 3.0 uM
[12] = biological target: Myosin light chain kinase, smooth muscle (Homo sapiens) (UniProt Q15746); test: MYLK Invitrogen selectivity data (BI); settings: Compound concentration 3.0 uM
[13] = biological target: Serine/threonine-protein kinase PAK 3 (Homo sapiens) (UniProt O75914); test: PAK3 Invitrogen selectivity data (BI); settings: Compound concentration 3.0 uM
[14] = biological target: RAF proto-oncogene serine/threonine-protein kinase (Homo sapiens) (UniProt P04049); test: RAF1 Invitrogen selectivity data (BI); settings: Compound concentration 3.0 uM
[15] = biological target: Serine/threonine-protein kinase 25 (Homo sapiens) (UniProt O00506); test: STK25 Invitrogen selectivity data (BI); settings: Compound concentration 3.0 uM
[16] = biological target: T3, Aurora kinase A (Homo sapiens) (UniProt O14965); test: STK6 Invitrogen selectivity data (BI); settings: Compound concentration 3.0 uM
T3 sequence (whole entry): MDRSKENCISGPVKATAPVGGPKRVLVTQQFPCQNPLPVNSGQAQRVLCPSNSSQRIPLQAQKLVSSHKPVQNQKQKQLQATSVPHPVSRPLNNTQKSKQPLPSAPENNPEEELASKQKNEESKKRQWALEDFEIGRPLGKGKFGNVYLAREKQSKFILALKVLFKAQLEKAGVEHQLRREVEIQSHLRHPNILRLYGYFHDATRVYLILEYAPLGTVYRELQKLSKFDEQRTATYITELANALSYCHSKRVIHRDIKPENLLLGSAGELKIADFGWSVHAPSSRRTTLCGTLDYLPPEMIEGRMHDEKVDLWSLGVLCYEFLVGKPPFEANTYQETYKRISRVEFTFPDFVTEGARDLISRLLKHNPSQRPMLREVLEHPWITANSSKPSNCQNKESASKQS

[17] = biological target: T4, Dual specificity protein kinase TTK (Homo sapiens) (UniProt P33981); test: TTK Invitrogen selectivity data (BI); settings: Compound concentration 3.0 uM
T4 sequence (whole entry): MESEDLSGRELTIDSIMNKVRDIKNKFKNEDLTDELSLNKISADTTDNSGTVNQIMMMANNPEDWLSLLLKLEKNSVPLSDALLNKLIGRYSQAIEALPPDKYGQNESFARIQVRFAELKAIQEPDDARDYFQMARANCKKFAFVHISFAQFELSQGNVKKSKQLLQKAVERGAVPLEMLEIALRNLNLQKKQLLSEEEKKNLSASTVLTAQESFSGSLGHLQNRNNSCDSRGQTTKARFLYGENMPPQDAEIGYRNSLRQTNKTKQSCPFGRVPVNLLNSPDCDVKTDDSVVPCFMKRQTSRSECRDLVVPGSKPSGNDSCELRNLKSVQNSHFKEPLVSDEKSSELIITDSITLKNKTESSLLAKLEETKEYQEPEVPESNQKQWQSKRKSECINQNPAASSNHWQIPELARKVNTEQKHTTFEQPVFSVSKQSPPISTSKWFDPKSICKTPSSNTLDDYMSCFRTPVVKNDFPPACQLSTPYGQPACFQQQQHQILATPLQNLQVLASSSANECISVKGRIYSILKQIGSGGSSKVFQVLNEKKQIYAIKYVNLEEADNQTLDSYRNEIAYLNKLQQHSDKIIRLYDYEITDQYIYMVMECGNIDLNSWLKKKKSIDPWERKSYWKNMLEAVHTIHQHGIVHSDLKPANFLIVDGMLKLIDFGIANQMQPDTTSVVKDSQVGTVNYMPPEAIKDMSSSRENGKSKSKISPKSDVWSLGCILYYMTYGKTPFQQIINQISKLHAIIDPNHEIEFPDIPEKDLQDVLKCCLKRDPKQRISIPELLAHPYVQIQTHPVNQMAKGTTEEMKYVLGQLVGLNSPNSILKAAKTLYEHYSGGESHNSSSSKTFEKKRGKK

Sequence of Serine/threonine-protein kinase 25 (Homo sapiens) (O00506 whole entry, looked up): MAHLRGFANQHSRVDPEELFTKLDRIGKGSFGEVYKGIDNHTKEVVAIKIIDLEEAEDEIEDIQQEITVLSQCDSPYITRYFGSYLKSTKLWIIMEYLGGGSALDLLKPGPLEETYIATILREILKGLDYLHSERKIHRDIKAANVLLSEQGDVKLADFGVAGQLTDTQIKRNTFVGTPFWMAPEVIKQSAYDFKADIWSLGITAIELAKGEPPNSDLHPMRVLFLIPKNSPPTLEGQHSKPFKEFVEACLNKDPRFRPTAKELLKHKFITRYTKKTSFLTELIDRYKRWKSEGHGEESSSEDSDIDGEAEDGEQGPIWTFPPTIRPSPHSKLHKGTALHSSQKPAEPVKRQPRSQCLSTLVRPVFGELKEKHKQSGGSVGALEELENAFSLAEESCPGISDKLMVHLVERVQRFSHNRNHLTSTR
Sequence of Serine/threonine-protein kinase PAK 3 (Homo sapiens) (O75914 whole entry, looked up): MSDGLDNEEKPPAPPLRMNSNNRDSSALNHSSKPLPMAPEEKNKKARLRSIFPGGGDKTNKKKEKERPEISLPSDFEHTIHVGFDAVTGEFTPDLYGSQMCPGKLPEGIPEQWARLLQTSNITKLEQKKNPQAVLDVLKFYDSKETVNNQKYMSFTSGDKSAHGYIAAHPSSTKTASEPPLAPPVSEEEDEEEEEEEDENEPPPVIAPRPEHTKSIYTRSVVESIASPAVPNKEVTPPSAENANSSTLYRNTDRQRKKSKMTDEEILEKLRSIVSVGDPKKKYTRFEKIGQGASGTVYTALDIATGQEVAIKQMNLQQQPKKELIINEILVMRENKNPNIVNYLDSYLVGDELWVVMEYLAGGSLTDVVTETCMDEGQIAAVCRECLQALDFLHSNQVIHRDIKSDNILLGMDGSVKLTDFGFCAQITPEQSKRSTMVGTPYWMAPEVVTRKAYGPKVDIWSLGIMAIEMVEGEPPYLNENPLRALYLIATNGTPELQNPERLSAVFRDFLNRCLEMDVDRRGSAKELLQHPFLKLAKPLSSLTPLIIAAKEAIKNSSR
Sequence of Gastrin/cholecystokinin type B receptor (Homo sapiens) (P32239 whole entry): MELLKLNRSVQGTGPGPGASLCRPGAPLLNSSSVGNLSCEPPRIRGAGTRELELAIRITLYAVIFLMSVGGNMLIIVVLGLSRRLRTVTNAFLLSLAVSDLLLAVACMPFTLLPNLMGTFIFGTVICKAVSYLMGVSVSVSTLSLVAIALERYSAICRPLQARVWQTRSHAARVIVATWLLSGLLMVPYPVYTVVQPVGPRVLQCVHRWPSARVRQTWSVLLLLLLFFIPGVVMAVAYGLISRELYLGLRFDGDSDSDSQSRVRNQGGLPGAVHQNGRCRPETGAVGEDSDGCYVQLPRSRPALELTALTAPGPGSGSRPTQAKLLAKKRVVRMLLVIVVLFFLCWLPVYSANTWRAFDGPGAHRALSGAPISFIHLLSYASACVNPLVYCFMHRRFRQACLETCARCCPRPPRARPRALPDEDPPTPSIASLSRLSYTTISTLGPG
Sequence of Muscarinic acetylcholine receptor M3 (Homo sapiens) (P20309 whole entry, looked up): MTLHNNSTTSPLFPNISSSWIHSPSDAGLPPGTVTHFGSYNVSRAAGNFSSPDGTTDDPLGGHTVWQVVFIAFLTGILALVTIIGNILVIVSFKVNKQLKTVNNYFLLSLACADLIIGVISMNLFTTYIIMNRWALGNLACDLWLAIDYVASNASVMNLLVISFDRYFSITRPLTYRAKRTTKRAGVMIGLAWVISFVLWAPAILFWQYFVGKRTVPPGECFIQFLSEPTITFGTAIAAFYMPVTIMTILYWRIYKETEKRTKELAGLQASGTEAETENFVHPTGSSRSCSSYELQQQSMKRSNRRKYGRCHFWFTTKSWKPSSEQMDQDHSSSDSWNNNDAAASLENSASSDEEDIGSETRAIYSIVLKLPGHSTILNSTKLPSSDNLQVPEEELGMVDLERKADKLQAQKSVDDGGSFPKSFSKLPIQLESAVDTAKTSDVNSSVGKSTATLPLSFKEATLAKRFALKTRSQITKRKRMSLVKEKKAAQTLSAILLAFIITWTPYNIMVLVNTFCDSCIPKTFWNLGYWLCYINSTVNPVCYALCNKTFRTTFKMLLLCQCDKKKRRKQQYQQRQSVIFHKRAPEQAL
Sequence of Sigma non-opioid intracellular receptor 1 (Homo sapiens) (Q99720 whole entry): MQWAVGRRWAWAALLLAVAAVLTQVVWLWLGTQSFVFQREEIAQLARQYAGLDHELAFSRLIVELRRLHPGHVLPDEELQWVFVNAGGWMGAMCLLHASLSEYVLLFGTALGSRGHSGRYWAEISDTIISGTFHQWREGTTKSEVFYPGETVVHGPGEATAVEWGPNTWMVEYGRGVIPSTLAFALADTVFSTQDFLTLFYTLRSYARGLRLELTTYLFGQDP
Sequence of Serine/threonine-protein kinase B-raf (Homo sapiens), P15056 [V600E] (P15056 whole entry V600E): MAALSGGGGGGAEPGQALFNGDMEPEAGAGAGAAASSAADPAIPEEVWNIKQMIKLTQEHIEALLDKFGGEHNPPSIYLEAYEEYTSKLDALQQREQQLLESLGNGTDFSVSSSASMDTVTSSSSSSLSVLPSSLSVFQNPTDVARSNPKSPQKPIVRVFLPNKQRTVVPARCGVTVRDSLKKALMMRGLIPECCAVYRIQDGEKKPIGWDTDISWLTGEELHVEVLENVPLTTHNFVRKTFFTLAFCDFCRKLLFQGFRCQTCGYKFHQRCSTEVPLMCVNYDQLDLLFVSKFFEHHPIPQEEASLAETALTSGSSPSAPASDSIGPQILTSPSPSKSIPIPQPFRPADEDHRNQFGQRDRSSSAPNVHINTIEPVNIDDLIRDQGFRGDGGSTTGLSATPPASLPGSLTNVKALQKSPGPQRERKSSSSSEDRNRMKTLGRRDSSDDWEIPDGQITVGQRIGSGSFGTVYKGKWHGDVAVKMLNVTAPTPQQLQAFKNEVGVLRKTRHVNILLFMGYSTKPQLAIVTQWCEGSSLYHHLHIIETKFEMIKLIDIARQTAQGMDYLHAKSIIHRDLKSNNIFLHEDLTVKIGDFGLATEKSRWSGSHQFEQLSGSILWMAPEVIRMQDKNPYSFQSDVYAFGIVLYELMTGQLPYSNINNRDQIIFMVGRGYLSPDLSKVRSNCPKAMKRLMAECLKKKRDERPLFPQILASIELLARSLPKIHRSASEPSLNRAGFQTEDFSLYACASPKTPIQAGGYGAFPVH
Sequence of RAF proto-oncogene serine/threonine-protein kinase (Homo sapiens) (P04049 whole entry): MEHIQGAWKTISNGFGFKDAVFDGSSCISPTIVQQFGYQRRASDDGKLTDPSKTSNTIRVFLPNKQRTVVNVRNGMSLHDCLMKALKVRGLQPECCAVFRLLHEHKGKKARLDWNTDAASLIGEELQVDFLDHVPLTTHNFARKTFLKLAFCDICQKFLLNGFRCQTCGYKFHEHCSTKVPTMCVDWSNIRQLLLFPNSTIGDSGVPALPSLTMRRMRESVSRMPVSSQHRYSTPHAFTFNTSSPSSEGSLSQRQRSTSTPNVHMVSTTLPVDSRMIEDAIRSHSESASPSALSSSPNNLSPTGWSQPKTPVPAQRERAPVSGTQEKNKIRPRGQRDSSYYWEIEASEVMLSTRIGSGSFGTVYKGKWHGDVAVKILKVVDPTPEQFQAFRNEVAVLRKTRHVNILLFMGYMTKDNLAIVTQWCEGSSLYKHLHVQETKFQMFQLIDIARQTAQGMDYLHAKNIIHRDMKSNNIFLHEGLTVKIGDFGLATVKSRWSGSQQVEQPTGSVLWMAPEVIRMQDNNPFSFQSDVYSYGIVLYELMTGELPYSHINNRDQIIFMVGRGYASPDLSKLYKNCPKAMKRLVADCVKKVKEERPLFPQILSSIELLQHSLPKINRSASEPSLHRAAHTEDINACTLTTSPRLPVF
Sequence of Insulin receptor (Homo sapiens) (P06213 28-758 limits assumed): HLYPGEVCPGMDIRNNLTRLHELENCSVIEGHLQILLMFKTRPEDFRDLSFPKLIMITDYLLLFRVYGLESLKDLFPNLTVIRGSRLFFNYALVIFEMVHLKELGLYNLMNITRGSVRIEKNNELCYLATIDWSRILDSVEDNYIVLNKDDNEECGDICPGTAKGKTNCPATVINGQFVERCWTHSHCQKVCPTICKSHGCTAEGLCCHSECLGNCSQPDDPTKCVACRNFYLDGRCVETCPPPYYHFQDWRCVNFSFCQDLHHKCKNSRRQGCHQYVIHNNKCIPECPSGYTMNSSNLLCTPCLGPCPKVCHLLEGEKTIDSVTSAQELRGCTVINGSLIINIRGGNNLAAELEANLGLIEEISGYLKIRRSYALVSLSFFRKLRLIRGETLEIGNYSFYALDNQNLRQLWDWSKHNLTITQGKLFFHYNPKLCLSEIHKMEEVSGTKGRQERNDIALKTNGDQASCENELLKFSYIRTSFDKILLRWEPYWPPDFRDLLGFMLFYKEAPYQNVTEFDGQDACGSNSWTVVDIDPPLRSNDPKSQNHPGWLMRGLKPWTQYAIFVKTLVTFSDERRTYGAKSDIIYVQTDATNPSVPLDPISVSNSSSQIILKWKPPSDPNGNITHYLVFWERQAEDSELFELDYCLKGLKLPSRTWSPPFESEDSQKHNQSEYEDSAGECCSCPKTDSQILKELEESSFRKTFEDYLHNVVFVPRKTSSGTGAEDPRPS
Sequence of Insulin receptor (Homo sapiens) (P06213 763-1382 limits assumed): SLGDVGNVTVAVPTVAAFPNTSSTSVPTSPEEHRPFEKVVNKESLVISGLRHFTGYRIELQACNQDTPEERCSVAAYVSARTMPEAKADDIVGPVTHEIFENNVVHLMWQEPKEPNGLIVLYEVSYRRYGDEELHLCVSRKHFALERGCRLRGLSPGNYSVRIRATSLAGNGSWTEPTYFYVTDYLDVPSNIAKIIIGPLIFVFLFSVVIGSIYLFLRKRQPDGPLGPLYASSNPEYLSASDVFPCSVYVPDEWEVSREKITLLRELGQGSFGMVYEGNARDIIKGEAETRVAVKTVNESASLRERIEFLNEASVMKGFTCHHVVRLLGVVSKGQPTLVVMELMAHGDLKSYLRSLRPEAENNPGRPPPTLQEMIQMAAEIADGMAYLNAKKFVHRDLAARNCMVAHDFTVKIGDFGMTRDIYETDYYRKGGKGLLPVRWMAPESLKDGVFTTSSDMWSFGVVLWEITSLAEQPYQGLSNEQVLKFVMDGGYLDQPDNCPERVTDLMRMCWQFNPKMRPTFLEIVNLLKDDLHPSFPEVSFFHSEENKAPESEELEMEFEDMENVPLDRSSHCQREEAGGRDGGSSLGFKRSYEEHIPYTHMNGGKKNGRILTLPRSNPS

## CN(C)C(=O)Cn1cc(-c2nc(C3(c4ccc(-c5cnc(N)nc5)cc4)CC3)no2)cn1 [BI 0153]
[1]
  inhibition: -4.19%

## CN(C)C(=O)Cn1cc(-c2nc([C@@](C)(c3ccc(-c4cnc(N)nc4)cc3)C3CC3)no2)cn1 [BI 665915]
[2]
  activity at 20 µM: 119% (not active)
[3]
  residual activity: 119%
[4]
  residual activity: 94%
[5]
  residual activity: 83%
[6]
  residual activity: 105%
[7]
  residual activity: 115%
[8]
  residual activity: 97%
[9]
  residual activity: 93%
[10]
  residual activity: 100%
[11]
  residual activity: 97%
[12]
  residual activity: 100%
[13]
  residual activity: 94.5%
[14]
  residual activity: 97%
[15]
  residual activity: 106%
[16]
  residual activity: 75.5%
[17]
  residual activity: 98%

From ChEMBL document CHEMBL4507276 (2021)
